“Also recorded” adds a separate entry of the source. Each block holds one molecule with its values, some of them ahead of it.
How the values were obtained:
CT26 cells [1] = test: Murine CRC model (CT26 cells) in BALB/c mice, combination with AdIL-12 gene therapy; format: in vivo, mouse; details: mice with regression/mice in group; ANTARTINA 50 mg/kg 3 doses per week; AdIL12 10^9 TCID50 intratumorally, one dose at day 15
Excerpt: Mouse CT26 cells (5×10^5) were subcutaneously inoculated on day 0. On day 7, when tumors reached a diameter of 5-7 mm, animals were divided into 4 groups: saline, ANTARTINA®, AdIL12, and the combination of ANTARTINA® and AdIL-12. Tumor volume is shown in the left panel vs. days after CT26 inoculation. Excised tumors are depicted in the right panel.
Adenovirus IL-12 constructs are as previously reported. (Mazzolini et al., Cancer Gene Therapy, 6(6):514-522, 1999).
This is a murine model of CRC (CT26 cells) established in BALB/c mice. Mouse CT26 cells (5×10^5) were subcutaneously inoculated on day 0. On day 7, when tumors reached a diameter of 5-7 mm, animals were divided into 4 groups: saline, ANTARTINA® 50 mg/kg, 3 doses per week (systemically), AdIL12 (adenovirus encoding murine IL-12, dose: 10^9 TCID50, intratumorally, one dose at day 15 after tumor inoculation), and the combination of ANTARTINA® and AdIL-12. Tumor volume was measured with a caliper 3 times per week. […] Complete tumor regressions: saline […], AdIL-12 1/5, Antartina 2/5, and combined therapy: 4/5. (FIG. 6).

dendritic cell = test: Dendritic cell activation; format: cell-based
Excerpt: (§1) In colorectal carcinoma (CRC) patients, distant metastatic disease is present at initial diagnosis in nearly 25% of patients. The majority of patients with metastatic CRC have an incurable disease; therefore, new therapies are needed to address this cancer. […] ANTARTINA® is an antitumor agent isolated from Deschampsia antarctica Desv. In that study, the aim was to evaluate the antitumor properties of ANTARTINA® in CRC models. Human and murine CRC cell lines were employed to investigate proliferation, apoptosis, and cell cycle effects of ANTARTINA® therapy in vitro. Immune response of ANTARTINA® against cancer cells in the CRC model was also investigated using a cytotoxic T lymphocyte (CTL) assay, analyzing dendritic cell activation and intratumor T cell sub-population, and by tumor re-challenge experiments.

human CRC cell = test: In vitro human CRC cell proliferation; format: cell-based
Excerpt: as §1

CRC [2] = test: Immunocompetent CRC mouse model; format: in vivo
Excerpt: as §1

CRC [3] = test: Cytotoxic T lymphocyte (CTL) assay; format: cell-based
Excerpt: as §1

CT26 cells [4] = test: Subcutaneous CRC model, CT26 cells in BALB/c mice; format: in vivo, mouse; details: 50 mg/kg i.p., 3 times per week over 3 weeks; s.c. CT26 tumors in BALB/c mice; compared with ANTARTINA and tricin
Excerpt: FIG. 4 depicts cell size (mm^3) in mice of CT26 tumors after CT26 cell line injection into mice. […] The bottom panel provides a summary of all results in one graph.
Mouse CT26 tumor cell line, an undifferentiated murine colorectal carcinoma (CRC) cell line established from N-nitroso-N-methylurethan-induced transplantable tumor in BALB/c (H-2d) mice, BNL cells (an hepatoma cell line) were used in the studies below and can be obtained from the University of Navarra, Spain. Human cell lines were from American Type Culture Collection (ATCC, Manassas, Va., US), including LoVo (ATCC-CCL229), ASG (ATCC-CCRL-79) and lung fibroblast Wi38 (ATCC-CCL75). All lines were tested for mycoplasma and cultured in complete DMEM (GIBCO, Themo Fisher Scientific, mM glutamine, 100 U/mL penicillin, […] streptomycin, and 10% heat inactivated fetal bovine serum (FBS, GIBCO, Thermo Fisher Scientific) and incubated 37° C. in 5% CO2.
Subcutaneous CRC model: Six-to-eight-week-old male BALB/c mice were used. CT26 cells were injected at a dose of 5×10^5 cells subcutaneously (s.c.) into the right flank of BALB/c mice (day 0). Tumors were allowed to reach ^˜90 mm^3 in size before treatment. […] Tumor growth was assessed by caliper measurement. Tumor volume was calculated using the following formula: tumor volume (mm^3)=length×(width) 2/2.

Hepa129 cells = test: Orthotopic hepatocellular carcinoma model associated with fibrosis, Hepa129 cells in C3H/He mice; format: in vivo, mouse; details: 50 mg/kg, 3 times per week from day 5; quantified fifteen days after tumor implantation; vs saline
Experimental: On day 28, mice were anesthetized and orthotopic tumors were established by sub-capsular inoculation of 1.25×10^5 Hepa129 cells into the left liver lobe by laparotomy (day 0). Five days after tumor implantation, mice were distributed in groups (n=6-8/group) and received: i) saline (control, FIG. 5A, left panel); ii) acetylated ANTARTINA® (50 mg/kg, 3 times per week, FIG. 5A, right panel). Fifteen days after tumor implantation, mice were sacrificed and tumor volume was quantified, as depicted in FIG. 5B (control, left panel; acetylated ANTARTINA®, right panel).
Experimental model of HCC associated with fibrosis: C3H/He mice were treated intraperitoneally (i.p) with 200 mg/kg of thioacetamide (TAA) (Sigma-Aldrich, St. Louis, USA) 3 times a week for 4 weeks. On day 28, mice were anesthetized and orthotopic tumors were established by sub-capsular inoculation of 1.25×10^5 Hepa129 cells into the left liver lobe by laparotomy (day 0). Five days after tumor implantation, mice were distributed in groups (n=6-8/group) and received: i) saline (control); ii) acetylated ANTARTINA® (50 mg/kg, 3 times per week). (See, FIG. 5A). Fifteen days after tumor implantation, mice were sacrificed and tumor volume was quantified. (See, FIG. 5B).

- melting point: 260.2 to 263.3 °C
SMILES: COc1cc(-c2cc(=O)c3c(O)cc(O[C@@H]4O[C@H](CO)[C@H](O)[C@H](O)[C@H]4O)cc3o2)cc(OC)c1O (stereo in doubt)

- melting point: 275.4 to 279.2 °C
SMILES: COc1cc(-c2cc(=O)c3c(O)cc(O[C@@H]4O[C@H](CO)[C@@H](O[C@@H]5O[C@H](CO)[C@H](O)[C@H](O)[C@H]5O)[C@H](O)[C@H]4O)cc3o2)cc(OC)c1O (stereo in doubt)

- melting point: 243.2 to 246.5 °C
SMILES: COc1cc(-c2cc(=O)c3c(O)cc(O[C@@H]4O[C@H](CO)[C@@H](O[C@@H]5O[C@H](CO)[C@@H](O)[C@H](O)[C@H]5O)[C@H](O)[C@H]4O)cc3o2)cc(OC)c1O (stereo in doubt)

- melting point: 117.2 to 121.8 °C
SMILES: COc1cc(-c2cc(=O)c3c(O)cc(O[C@@H]4O[C@H](COC(C)=O)[C@H](OC(C)=O)[C@H](OC(C)=O)[C@H]4OC(C)=O)cc3o2)cc(OC)c1O (stereo in doubt)

SMILES: COc1cc(-c2cc(=O)c3c(O)cc(O[C@@H]4O[C@H](CO)[C@@H](O)[C@H](O)[C@H]4O)cc3o2)cc(OC)c1O [ANTARTINA®, tricin 7-O-β-D-glucopyranoside]
- complete tumor regressions (CT26 cells [1]): 2/5
- dendritic cell activation (dendritic cell): stimulated dendritic cell activation
- in vitro human CRC cell proliferation (human CRC cell): inhibits
- toxic effects (CRC [2]; at the doses employed): No toxic effects were observed
- animal survival rate (CRC [2]; mouse, in vivo): increased
- complete tumor regressions (CRC [2]; mouse, in vivo): > 30 % of mice
- tumor growth and liver metastases (CRC [2]; mouse, in vivo): potently inhibited
- tumor immunogenicity (CRC [2]; mouse, in vivo): increased tumor immunogenicity
- antitumor immunity (tumor re-challenge) (CRC [2]; tumor re-challenge experiments): long lasting antitumor immunity
- specific cytotoxic T cell response against CRC (CRC [3]): induced a potent specific cytotoxic T cell response

SMILES: COc1cc(-c2cc(=O)c3c(OC(C)=O)cc(O[C@@H]4O[C@H](COC(C)=O)[C@@H](OC(C)=O)[C@H](OC(C)=O)[C@H]4OC(C)=O)cc3o2)cc(OC)c1OC(C)=O [acetylated ANTARTINA®, Tricin 7-O-β-D-glucopyranoside, Per Acetylated]
- melting point: 239.1 to 241.8 °C
- tumor size (antitumoral effect) (CT26 cells [4]): superior antitumoral effect in comparison with native ANTARTINA®; also recorded: clearly and markedly reduced tumor size at a higher rate than observed for any of the other tested agents
- tumor volume (Hepa129 cells): markedly reduced the tumor volume

From patent US11534449B2, “Tricin derivatives and compositions thereof for cancer treatment” (NEOCAGE SL, priority 2019, dated 2022)
